Patent US20070172957A1, “Methods of identifying anti-inflammatory macrolides” (TAISHO PHARMACEUTICAL CO., LTD., priority 2004, published 2007)

Test system: A549 cells
Assay: A549 microarray comparing macrolides with arachidonic acid pathway inhibitors, with IL-1β stimulation (Appendix C, Tables 6-9), and correlation analysis
Assay type: cell-based
Details: for Total # Differential Genes (95% confidence): A549, IL1 vs IL1 + drug, threshold 1.3, macrolides 50 μM (FMA 10 μM), triacsin C 15 μM, indomethacin and dexamethasone 100 nM; for FADS1 expression: microarray
Description: One inhibitor, triacsin C, acts on AA biosynthesis by inhibiting arachidonyl CoA synthetases, blocking the incorporation of free AA into phospholipids. Triacsin C is reasonably specific for AA compared to other fatty acids. However, triacsin C structurally resembles AA so it also may interfere with other steps in the AA pathway. Indomethacin is an inhibitor of COX1 and COX2 enzyme activities and therefore specifically blocks metabolism of AA into prostaglandins. […] It inhibits transcription of PLA2, and transcriptionally and post-transcriptionally regulates COX1 and COX2 activities. Dexamethasone has additional effects unrelated to AA through binding with the glucocorticoid receptor to glucocortcoid response elements.
A549 cells were pre-incubated overnight (17 hours) with macrolides (10 μM FMA-9045, 50 μM clarithromycin, 50 μM roxithromycin, 50 μM josamycin) and 15 μM triacsin C, and pre-incubated 2 hours with 100 nM indomethacin and 100 nM dexamethasone. All cells then were stimulated for 4 hours with IL-1β, because the activation of PLA2 and downstream signaling events generally requires an inflammatory stimulus. The various treatment conditions are shown below in Table 4. Following macrolide and inhibitor pre-treatment and IL-1 stimulation, the cells were lysed, total RNA was collected, and the poly-A+ mRNA fraction was purified. The resulting microarray data (Appendix C) were analyzed using the methods described in the Examples above.
The tables in Appendix C represent the effects of the arachidonic acid pathway inhibitors (“AA pathway inhibitors”) and the effects of the macrolides (“IL1+macrolide effects”). […] In both tables in Appendix C, the genes that meet this criterion (≧1.3 min fold change) are indicated in bold.
Quantitative analysis was done to determine how well the responses to the different AA pathway inhibitors correlated. The correlation values were assigned a p-value to provide statistical confidence to the correlation value. Correlation between experiments, across all spots showing good detection, was assessed by cosine vector angle to generate the data shown in Tables 7-9. A correlation coefficient close to one indicates strong correlation, whereas a value near zero indicates no correlation. P-values for each correlation coefficient were estimated based on a Fisher permutation test. In this test, each spot's expression ratios were randomly re-ordered across experiments and the degree of correlation between experiments was then reassessed. This was done repeatedly.

[1] = A549 cells, +IL1b +/- inhibitor

COc1ccc2c(c1)c(CC(=O)O)c(C)n2C(=O)c1ccc(Cl)cc1 [indomethacin]
Number of differentially expressed genes also differential in response to triacsin C (A549 + IL-1β, of the genes regulated by the labelled drug): 36 | Total # Differential Genes (95% confidence): 37 | min fold change, SpotID 46796 STC1 (stanniocalcin 1) [1]: 1.34 | min fold change, SpotID 46950 SERPINA3 (serine (or cysteine) proteinase inhibitor, clade A, member 3) [1]: 1.28 | min fold change, SpotID 46985 RIPK2 (RIP2, RICK; receptor-interacting serine-threonine kinase 2) [1]: 1.85 | min fold change, SpotID 47155 TNFAIP6 (tumor necrosis factor, alpha-induced protein 6) [1]: 1.17 | min fold change, SpotID 47166 SERPINA6 (serine (or cysteine) proteinase inhibitor, clade A, member 6) [1]: 1.05 | min fold change, SpotID 47193 STAT3 (signal transducer and activator of transcription 3) [1]: 1.25 | min fold change, SpotID 47332 SERPINB3 (serine (or cysteine) proteinase inhibitor, clade B (ovalbumin), member 3) [1]: 1.25 | min fold change, SpotID 47444 TKT (transketolase (Wernicke-Korsakoff syndrome)) [1]: 1.00 | min fold change, SpotID 47569 STAT3 (signal transducer and activator of transcription 3) [1]: 1.69 | min fold change, SpotID 47697 TNFRSF6B (DcR3; tumor necrosis factor receptor superfamily, member 6b, decoy) [1]: 1.52 | min fold change, SpotID 47698 PTPRJ (protein tyrosine phosphatase, receptor type, J) [1]: 1.31 | min fold change, SpotID 47987 THBS1 (thrombospondin 1) [1]: 1.32 | min fold change, SpotID 48050 RPS6KA2 (ribosomal protein S6 kinase, 90 kD, polypeptide 2) [1]: 1.00 | min fold change, SpotID 48234 PTPRZ1 (PTP zeta; protein tyrosine phosphatase, receptor-type, Z polypeptide 1) [1]: 1.48 | min fold change, SpotID 48239 TLN1 (talin 1) [1]: 1.51 | min fold change, SpotID 48288 TRAF5 (TNF receptor-associated factor 5) [1]: 1.40 | min fold change, SpotID 48359 RIPK1 (receptor (TNFRSF)-interacting serine-threonine kinase 1) [1]: 1.00 | min fold change, SpotID 48392 RIPK1 (receptor (TNFRSF)-interacting serine-threonine kinase 1) [1]: 1.00 | min fold change, SpotID 48395 TNFRSF7 (CD27; tumor necrosis factor receptor superfamily, member 7) [1]: 1.55 | min fold change, SpotID 48485 UCP1 (uncoupling protein 1 (mitochondrial, proton carrier)) [1]: 1.32 | min fold change, SpotID 48500 RPL13A (ribosomal protein L13a) [1]: 1.06 | min fold change, SpotID 48594 RPS6KA2 (ribosomal protein S6 kinase, 90 kD, polypeptide 2) [1]: 1.03 | min fold change, SpotID 48603 TEAD4 (TEA domain family member 4) [1]: 1.72 | min fold change, SpotID 49330 TNFRSF7 (CD27; tumor necrosis factor receptor superfamily, member 7) [1]: 1.44 | min fold change, SpotID 49899 WWOX (WW domain containing oxidoreductase) [1]: 1.00 | min fold change, SpotID 49901 TROAP (trophinin associated protein (tastin)) [1]: 1.01 | min fold change, SpotID 50379 TNFRSF6 (FAS; tumor necrosis factor receptor superfamily, member 6) [1]: 1.38 | min fold change, SpotID 50428 RPLP0 (ribosomal protein, large, P0) [1]: 1.00 | min fold change, SpotID 50491 TNFRSF6B (DcR3; tumor necrosis factor receptor superfamily, member 6b, decoy) [1]: 1.17 | wtd means, SpotID 46796 STC1 (stanniocalcin 1) [1]: 1.47 | wtd means, SpotID 46950 SERPINA3 (serine (or cysteine) proteinase inhibitor, clade A, member 3) [1]: 1.41 | wtd means, SpotID 46985 RIPK2 (RIP2, RICK; receptor-interacting serine-threonine kinase 2) [1]: 2.23 | wtd means, SpotID 47155 TNFAIP6 (tumor necrosis factor, alpha-induced protein 6) [1]: 1.23 | wtd means, SpotID 47166 SERPINA6 (serine (or cysteine) proteinase inhibitor, clade A, member 6) [1]: 1.66 | wtd means, SpotID 47193 STAT3 (signal transducer and activator of transcription 3) [1]: 1.64 | wtd means, SpotID 47332 SERPINB3 (serine (or cysteine) proteinase inhibitor, clade B (ovalbumin), member 3) [1]: 1.33 | wtd means, SpotID 47444 TKT (transketolase (Wernicke-Korsakoff syndrome)) [1]: 0.82 | wtd means, SpotID 47569 STAT3 (signal transducer and activator of transcription 3) [1]: 2.00 | wtd means, SpotID 47697 TNFRSF6B (DcR3; tumor necrosis factor receptor superfamily, member 6b, decoy) [1]: 1.84 | wtd means, SpotID 47698 PTPRJ (protein tyrosine phosphatase, receptor type, J) [1]: 1.38 | wtd means, SpotID 47987 THBS1 (thrombospondin 1) [1]: 0.68 | wtd means, SpotID 48234 PTPRZ1 (PTP zeta; protein tyrosine phosphatase, receptor-type, Z polypeptide 1) [1]: 1.77 | wtd means, SpotID 48239 TLN1 (talin 1) [1]: 1.57 | wtd means, SpotID 48288 TRAF5 (TNF receptor-associated factor 5) [1]: 1.96 | wtd means, SpotID 48359 RIPK1 (receptor (TNFRSF)-interacting serine-threonine kinase 1) [1]: 1.34 | wtd means, SpotID 48392 RIPK1 (receptor (TNFRSF)-interacting serine-threonine kinase 1) [1]: 1.35 | wtd means, SpotID 48395 TNFRSF7 (CD27; tumor necrosis factor receptor superfamily, member 7) [1]: 1.76 | wtd means, SpotID 48485 UCP1 (uncoupling protein 1 (mitochondrial, proton carrier)) [1]: 1.70 | wtd means, SpotID 48500 RPL13A (ribosomal protein L13a) [1]: 1.23 | wtd means, SpotID 48603 TEAD4 (TEA domain family member 4) [1]: 2.19 | wtd means, SpotID 49330 TNFRSF7 (CD27; tumor necrosis factor receptor superfamily, member 7) [1]: 1.90 | wtd means, SpotID 49899 WWOX (WW domain containing oxidoreductase) [1]: 1.07 | wtd means, SpotID 49901 TROAP (trophinin associated protein (tastin)) [1]: 0.93 | wtd means, SpotID 50379 TNFRSF6 (FAS; tumor necrosis factor receptor superfamily, member 6) [1]: 1.57 | wtd means, SpotID 50428 RPLP0 (ribosomal protein, large, P0) [1]: 0.77 | wtd means, SpotID 50491 TNFRSF6B (DcR3; tumor necrosis factor receptor superfamily, member 6b, decoy) [1]: 1.60 | FADS1 expression (A549 cells): not

CCC/C=C/C/C=C/C=C/C=N/NN=O [triacsin C]
Total # Differential Genes (95% confidence): 228 | FADS1 expression (A549 cells): induced
